Source: patent US11602531B2, “Vacuole-inducing compounds, methods of making and using the same” (The University of Toledo, priority 2017, dated 2023)

Tests used:
Assay type in all cases: cell-based, human
U251 glioblastoma cells [1] = assay: Vacuolization of U251 cells by phase contrast and electron microscopy; details: 24 h; for vacuolization of endocytic compartments (accumulation of vacuoles): 10 μM MOPIPP or 1 μM vacuolin-1, phase contrast microscopy
U251 glioblastoma cells [2] = assay: RT-PCR analysis of miRNAs in cells and exosomes; details: for relative abundance of miR-21-5p in exosomal RNA: equal amounts of exosomal RNA, raw Ct values, three independent experiments
Description: Prior to beginning studies, cells were seeded in 10 cm diameter culture dishes at 500,000 cells/dish and maintained for 24 h in DMEM supplemented with 10% Gibco™ exosome-depleted FBS (ThermoFisher Scientific, Waltham, Mass.). The medium was then replaced with fresh medium containing either 10 μM MOPIPP (synthesized as described in Trabbic et al., “Differential Induction of Cytoplasmic Vacuolization and Methuosis by Novel 2-Indolyl-Substituted Pyridinylpropenones, ACS Med. Chem. Lett., 5 (2014) 73-77) or 1 μM vacuolin-1 (Santa Cruz Biotechnology, Santa Cruz, Calif.) dissolved in DMSO. Control cultures contain an equivalent volume of the DMSO vehicle (0.1%) in the medium. After 24 h, the medium was collected from the dishes (typically 10-12 dishes per condition) and the attached cells were pooled and counted with a Coulter Counter (model Z1). Exosomes were isolated from medium using the Exo-Spin™ Exosome Purification system (Cell Guidance Systems, St. Louis, Mo.). The medium was pre-cleared by centrifugation at 4° C., first at 300×g for 10 min and then at 16,000×g for 30 min. Then a volume of Buffer A equal to half the volume of medium was added and the mixture was incubated overnight at 4° C. The precipitate, enriched with exosomes, was collected by centrifugation at 16,000×g for 1 h, and the pellet was re-suspended in […] Dulbecco's phosphate-buffered saline (PBS), pH 7.4. […]
Total RNA was extracted and purified from cultured cells or exosomes using QIAzol™ lysis reagent followed by RNAeasy Mini spin-columns, according to the manufacturer's protocol (SA Biosciences/Qiagen, Germantown, Md.). […] RNA and cDNA were quantified and checked for purity (OD 260/280) using a Nano-Drop-1000 spectrophotometer (ThermoFisher). […] For comparisons of the miRNA contents of exosomes collected from the medium of cells treated with MOPIPP, vacuolin-1 or vehicle (DMSO), individual miScript primers were purchased for six of the most highly expressed miRNAs detected in U251 cells (SA Biosciences/Qiagen). […]

U251 glioblastoma cells [3] = assay: Cell counts, proliferation and viability of treated cultures (Coulter Counter); details: for cell attachment and proliferation despite vacuolization / growth inhibition (cell numbers versus DMSO control): U251 cells, 24 h; for cell attachment and proliferation despite vacuolization / cell proliferation and viability: 10 μM MOPIPP or 1 μM vacuolin-1; for growth inhibition (cell numbers versus DMSO control): 10 μM MOPIPP or 1 μM vacuolin-1, Coulter Counter; for cell proliferation and viability: U251 glioblastoma cells
Description: U251 human glioblastoma cells were purchased from the DCT Tumor Repository (National Cancer Institute, Frederick, Md.). Stock cultures were maintained in Dulbecco's modified Eagle medium (DMEM) containing 10% (v/v) fetal bovine serum (FBS) (JR Scientific, Woodland, Calif.) at 37° C. with an atmosphere of 5% CO2 in air. Cultures were passaged for less than 6 months and were monitored periodically for Mycoplasma contamination.
(§1) Prior to beginning studies, cells were seeded in 10 cm diameter culture dishes at 500,000 cells/dish and maintained for 24 h in DMEM supplemented with 10% Gibco™ exosome-depleted FBS (ThermoFisher Scientific, Waltham, Mass.). The medium was then replaced with fresh medium containing either 10 μM MOPIPP (synthesized as described in Trabbic et al., “Differential Induction of Cytoplasmic Vacuolization and Methuosis by Novel 2-Indolyl-Substituted Pyridinylpropenones, ACS Med. Chem. Lett., 5 (2014) 73-77) or 1 μM vacuolin-1 (Santa Cruz Biotechnology, Santa Cruz, Calif.) dissolved in DMSO. Control cultures contain an equivalent volume of the DMSO vehicle (0.1%) in the medium. After 24 h, the medium was collected from the dishes (typically 10-12 dishes per condition) and the attached cells were pooled and counted with a Coulter Counter (model Z1). Exosomes were isolated from medium using the Exo-Spin™ Exosome Purification system (Cell Guidance Systems, St. Louis, Mo.). The medium was pre-cleared by centrifugation at 4° C., first at 300×g for 10 min and then at 16,000×g for 30 min. Then a volume of Buffer A equal to half the volume of medium was added and the mixture was incubated overnight at 4° C. The precipitate, enriched with exosomes, was collected by centrifugation at 16,000×g for 1 h, and the pellet was re-suspended in […] Dulbecco's phosphate-buffered saline (PBS), pH 7.4. The material was applied to an Exo-Spin column equilibrated with PBS, and the purified exosomes were eluted in 200 μl of PBS.

U251 glioblastoma cells [4] = assay: Immunoblot quantification of exosome marker proteins (CD63, Alix, LAMP-1) in purified exosomes and in cells; details: 10 μM MOPIPP or 1 μM vacuolin-1, western blot; for changes in expression of CD63, Alix and LAMP-1 in the corresponding cell populations: cell lysates, 24 h; for relative amounts of CD63, Alix and LAMP-1 in extracellular vesicle preparations versus control: exosomes from 24 h conditioned medium
Description: as §1
The cells in the dishes used for collection of exosomes were washed three times with PBS and lysed in SDS sample buffer (Laemmli, “Cleavage of structural proteins during the assembly of the head of bacteriophage T4, Nature, 227 (1970) 680-685). The protein concentration was determined by colorimetric assay using Bio-Rad reagent (Bio-Rad, Richmond, Calif.). Samples containing equal amounts of total cell protein were subjected to SDS-PAGE and immunoblot analysis (as described in Maltese et al., “Retention of the Alzheimer's amyloid precursor fragment C99 in the endoplasmic reticulum prevents formation of amyloid beta-peptide, J. Biol. Chem., 276 (2001) 20267-20279). For analysis of proteins in exosomes, equal volumes of purified exosomes isolated from control or treated cells were mixed with ⅕ volume of 5×SDS sample buffer prior to SDS-PAGE. Monoclonal antibodies against CD63 and LAMP-1 were obtained from the Developmental Studies Hybridoma Bank (Iowa City, Iowa). […] Chemiluminescent signals on the membranes were quantified using an Alpha Innotech FluorChem HD2 imaging system with Alpha View software.

SMILES	vacuolization of endocytic compartments (accumulation of vacuoles) (U251 glioblastoma cells [1])	subpopulation of vacuoles containing clusters of heterogeneous vesicles (ILV/exosome size) (U251 glioblastoma cells [1]; 10 μM MOPIPP, electron microscopy)	cellular expression of 13 selected miRNAs (U251 glioblastoma cells [2]; U251 cells, 24 h, 10 μM MOPIPP versus DMSO, RT-PCR)	relative abundance of miR-21-5p in exosomal RNA (U251 glioblastoma cells [2])	cell attachment and proliferation despite vacuolization (U251 glioblastoma cells [3])	growth inhibition (cell numbers versus DMSO control) (U251 glioblastoma cells [3])	cell proliferation and viability (U251 glioblastoma cells [3])	changes in expression of CD63, Alix and LAMP-1 in the corresponding cell populations (U251 glioblastoma cells [4])	relative amounts of CD63, Alix and LAMP-1 in extracellular vesicle preparations versus control (U251 glioblastoma cells [4])
CCCc1[nH]c2ccc(OC)cc2c1C=CC(=O)c1ccncc1 [MOPIPP, 3-(5-methoxy-2-propyl-1H-indol-3-yl)-1-(4-pyridinyl)-2-propen-1-one]	resulted in vacuolization of endocytic compartments	20-30%	did not cause major changes	no observations of any changes	remained attached to the culture dishes and continued to proliferate	lack of growth inhibition	not markedly impaired	comparatively modest	increased by several fold
Ic1cccc(/C=N/Nc2nc(N3CCOCC3)nc(N(c3ccccc3)c3ccccc3)n2)c1 [vacuolin-1, reference compound]	induced a very similar phenotype	–	–	no observations of any changes	remained attached to the culture dishes and continued to proliferate	lack of growth inhibition	not markedly impaired	comparatively modest	An even greater increase
